The record followed here is patent US12673946B2, “Pyrimidin-4(3H)-one derivatives as TRPV4 antagonists” (RaQualia Pharma Inc., priority 2020, dated 2026).

The target of the assay is T1, human TRPV4 (Homo sapiens, UniProt Q9HBA0).
T1 construct: host or cells: tetracycline-inducible Flp-In T-REx 293 cells
Put plainly: Hypotonicity-induced Ca2+ influx (Fluo-4, FDSS). It is filed as cell-based. The method in brief:
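Flp-In T-REx 293 cells with tetracycline-induced human TRPV4, loaded with Fluo-4 for 60 min at 25 °C. Compound added 5 min before hypotonic mannitol/CaCl2 solution. Ca2+ signal recorded for 4.5 min on FDSS.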

The mark [1] stands for this setting: Flp-In T-REx 293 cells expressing human TRPV4, examples listed under heading 'Human IC50<50 nM'.
[2] abbreviates: Flp-In T-REx 293 cells stably expressing human TRPV4, compounds listed by potency bin (<10 nM Tables 96-1/96-2, <3 nM Table 97).

Bounds are passed on as bounds.

T1 sequence (Q9HBA0 whole entry): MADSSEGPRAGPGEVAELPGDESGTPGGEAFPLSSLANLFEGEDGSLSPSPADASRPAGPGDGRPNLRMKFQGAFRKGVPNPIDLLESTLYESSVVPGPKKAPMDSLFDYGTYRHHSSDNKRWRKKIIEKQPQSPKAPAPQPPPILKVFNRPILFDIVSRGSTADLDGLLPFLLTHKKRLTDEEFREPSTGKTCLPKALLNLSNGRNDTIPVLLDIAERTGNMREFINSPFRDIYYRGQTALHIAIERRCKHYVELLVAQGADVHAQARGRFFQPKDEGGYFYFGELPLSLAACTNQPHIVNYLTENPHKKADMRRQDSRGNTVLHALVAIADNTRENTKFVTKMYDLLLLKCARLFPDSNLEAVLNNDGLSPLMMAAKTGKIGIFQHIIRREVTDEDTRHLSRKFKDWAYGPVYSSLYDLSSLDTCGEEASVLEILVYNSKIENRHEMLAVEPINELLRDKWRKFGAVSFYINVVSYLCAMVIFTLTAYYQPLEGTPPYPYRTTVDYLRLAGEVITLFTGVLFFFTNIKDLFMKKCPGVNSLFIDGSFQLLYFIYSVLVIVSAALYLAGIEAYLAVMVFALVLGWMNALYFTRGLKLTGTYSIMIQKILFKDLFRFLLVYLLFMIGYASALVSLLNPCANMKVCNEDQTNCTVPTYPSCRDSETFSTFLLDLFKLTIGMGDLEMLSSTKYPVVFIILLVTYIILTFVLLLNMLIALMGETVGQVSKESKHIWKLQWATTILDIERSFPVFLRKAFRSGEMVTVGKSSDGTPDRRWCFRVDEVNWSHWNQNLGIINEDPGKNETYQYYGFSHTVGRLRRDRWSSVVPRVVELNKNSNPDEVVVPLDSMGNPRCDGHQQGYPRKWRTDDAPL

The term IC50 denotes the concentration at which inhibition is half-maximal. Read a high IC50 as weaker potency. As for `O=C([C@H](O)c1cccc(C(F)(F)F)c1)N1CCCc2nc(C3(c4cccc(-c5ccc(F)cc5)c4)CC3)[nH]c(=O)c2C1` [42-59], the concentration for half-maximal inhibition (IC50) is under 50 nM under setting [1] and under 10 nM under setting [2].
For `Cc1ccccc1-c1cccc(C2(c3nc4c(c(=O)[nH]3)CN(C(=O)[C@H](O)c3cccc(C(F)(F)F)c3)CCC4)CC2)c1` [42-60] the same measures were under 50 nM and under 10 nM.
The matching figures for `O=C([C@H](O)c1cccc(C(F)(F)F)c1)N1CCCc2nc(C3(c4cccc(-c5cc(F)cc(F)c5)c4)CC3)[nH]c(=O)c2C1` [42-61]: under 50 nM and under 10 nM.
As for `O=C([C@H](O)c1cccc(C(F)(F)F)c1)N1CCCc2nc(C3(c4cccc(-c5ccc(F)c(F)c5)c4)CC3)[nH]c(=O)c2C1` [42-62], the half-maximal inhibitory concentration (IC50) was under 50 nM under setting [1] and under 10 nM under setting [2].
As for `N#Cc1ccccc1-c1cccc(C2(c3nc4c(c(=O)[nH]3)CN(C(=O)[C@H](O)c3cccc(C(F)(F)F)c3)CCC4)CC2)c1` [42-63], the IC50 is, setting by setting: under setting [1], under 50 nM; under setting [2], under 10 nM.
The matching figures for `Cc1cccc(-c2cccc(C3(c4nc5c(c(=O)[nH]4)CN(C(=O)[C@H](O)c4cccc(C(F)(F)F)c4)CCC5)CC3)c2)c1` [42-64]: under 50 nM and under 10 nM.
For `N#Cc1ccc(-c2cccc(C3(c4nc5c(c(=O)[nH]4)CN(C(=O)[C@H](O)c4cccc(C(F)(F)F)c4)CCC5)CC3)c2)cc1` [42-65] the same measures were under 50 nM and under 10 nM.
The matching figures for `N#Cc1cc(-c2cccc(C3(c4nc5c(c(=O)[nH]4)CN(C(=O)[C@H](O)c4cccc(C(F)(F)F)c4)CCC5)CC3)c2)ccc1F` [42-66]: under 50 nM and under 3 nM.
For the compound `N#Cc1ccc(-c2cccc(C3(c4nc5c(c(=O)[nH]4)CN(C(=O)[C@H](O)c4cccc(C(F)(F)F)c4)CCC5)CC3)c2)cc1F` [42-67], the IC50 runs as follows: under setting [1], under 50 nM; under setting [2], under 10 nM.
As for `N#Cc1ccc(-c2cccc(C3(c4nc5c(c(=O)[nH]4)CN(C(=O)[C@H](O)c4cccc(C(F)(F)F)c4)CCC5)CC3)c2)cc1C#N` [42-68], the IC50 was under 50 nM under setting [1] and under 10 nM under setting [2].
For `N#Cc1cc(F)cc(-c2cccc(C3(c4nc5c(c(=O)[nH]4)CN(C(=O)[C@H](O)c4cccc(C(F)(F)F)c4)CCC5)CC3)c2)c1` [42-69] the same measures were under 50 nM and under 10 nM.
For `O=C(Cc1cccc(-c2cccc(C(F)(F)F)c2)c1)N1CCCc2nc(C3(c4cccc(C5=CCCCC5)c4)CC3)[nH]c(=O)c2C1` [42-70] the same measures were under 50 nM and under 10 nM.
For `N#Cc1cc(C#N)cc(-c2cccc(C3(c4nc5c(c(=O)[nH]4)CN(C(=O)[C@H](O)c4cccc(C(F)(F)F)c4)CCC5)CC3)c2)c1` [42-71] the same measures were under 50 nM and under 10 nM.
For the compound `O=C([C@H](O)c1cccc(C(F)(F)F)c1)N1CCCc2nc(C3(c4cccc(C5=CCN(C(=O)C6(C(F)(F)F)CC6)CC5)c4)CC3)[nH]c(=O)c2C1` [42-72], the IC50 runs as follows: under setting [1], under 50 nM; under setting [2], under 10 nM.
With `O=C([C@H](O)c1cccc(C(F)(F)F)c1)N1CCCc2nc(C3(c4cccc(C5=CCN(C(=O)N6CCCCC6)CC5)c4)CC3)[nH]c(=O)c2C1` [42-73], the IC50 reads like this: under setting [1], under 50 nM; under setting [2], under 10 nM.
For `O=C(CN1CCc2ccccc21)N1CC=C(c2cccc(C3(c4nc5c(c(=O)[nH]4)CN(C(=O)[C@H](O)c4cccc(C(F)(F)F)c4)CCC5)CC3)c2)CC1` [42-74] the same measures were under 50 nM and under 10 nM.
The matching figures for `O=C([C@H](O)c1cccc(C(F)(F)F)c1)N1CCCc2nc(C3(c4cccc(C5=CCN(S(=O)(=O)c6ccc(F)cc6)CC5)c4)CC3)[nH]c(=O)c2C1` [42-75]: under 50 nM and under 10 nM.
The matching figures for `O=C([C@H](O)c1cccc(C(F)(F)F)c1)N1CCCc2nc(C3(c4cccc(C5=CCN(S(=O)(=O)C6CCCCC6)CC5)c4)CC3)[nH]c(=O)c2C1` [42-76]: under 50 nM and under 10 nM.
Consider `O=C([C@H](O)c1cccc(C(F)(F)F)c1)N1CCCc2nc(C3(c4cccc(C5=CCN(C(=O)[C@H]6CC[C@H](C(F)(F)F)CC6)CC5)c4)CC3)[nH]c(=O)c2C1` [42-77], for which the IC50 by setting is: under setting [1], under 50 nM; under setting [2], under 3 nM.
The matching figures for `O=C([C@H](O)c1cccc(C(F)(F)F)c1)N1CCCc2nc(C3(c4cccc(C5=CCN(S(=O)(=O)Cc6ccccc6)CC5)c4)CC3)[nH]c(=O)c2C1` [42-78]: under 50 nM and under 10 nM.
For `O=C(Cc1ccc(COc2ccccc2)cc1)N1CC=C(c2cccc(C3(c4nc5c(c(=O)[nH]4)CN(C(=O)[C@H](O)c4cccc(C(F)(F)F)c4)CCC5)CC3)c2)CC1` [42-79] the same measures were under 50 nM and under 10 nM.
For `O=C([C@H](O)c1cccc(C(F)(F)F)c1)N1CCCc2nc(C3(c4cccc(C5=CCN(CC(F)(F)F)CC5)c4)CC3)[nH]c(=O)c2C1` [42-81] the same measures were under 50 nM and under 10 nM.
For `COc1ccc(C(=O)N2CC=C(c3cccc(C4(c5nc6c(c(=O)[nH]5)CN(C(=O)[C@H](O)c5cccc(C(F)(F)F)c5)CCC6)CC4)c3)CC2)cc1OC1CCCC1` [42-82], the IC50 is, setting by setting: under setting [1], under 50 nM; under setting [2], under 3 nM.
The matching figures for `O=C([C@H](O)c1cccc(C(F)(F)F)c1)N1CCCc2nc(C3(c4cccc(C5=CCN(C(=O)C6(c7cccc(C(F)(F)F)c7)CC6)CC5)c4)CC3)[nH]c(=O)c2C1` [42-83]: under 50 nM and under 3 nM.
For the compound `O=C(NC1CCCCC1)N1CC=C(c2cccc(C3(c4nc5c(c(=O)[nH]4)CN(C(=O)[C@H](O)c4cccc(C(F)(F)F)c4)CCC5)CC3)c2)CC1` [42-84], the IC50 was under 50 nM under setting [1] and under 3 nM under setting [2].
As to `CC(C)(C)CC(=O)N1CCN(c2ccc(-c3cccc(C4(c5nc6c(c(=O)[nH]5)CN(C(=O)[C@H](O)c5cccc(C(F)(F)F)c5)CCC6)CC4)c3)cn2)CC1` [42-85], the IC50 is under 50 nM under setting [1] and under 10 nM under setting [2].
With `O=C(Cc1ccccc1)N1CCN(c2ccc(-c3cccc(C4(c5nc6c(c(=O)[nH]5)CN(C(=O)[C@H](O)c5cccc(C(F)(F)F)c5)CCC6)CC4)c3)cn2)CC1` [42-86], the half-maximal inhibitory concentration (IC50) was under 50 nM under setting [1] and under 10 nM under setting [2].
For `O=C([C@H](O)c1cccc(C(F)(F)F)c1)N1CCCc2nc(C3(c4cccc(-c5ccc(N6CCC(c7ccccc7)CC6)nc5)c4)CC3)[nH]c(=O)c2C1` [42-87] the same measures were under 50 nM and under 10 nM.
For `O=C([C@H](O)c1cccc(C(F)(F)F)c1)N1CCCc2nc(C3(c4cccc(-c5ccc(N6CCC(OCc7ccccc7)CC6)nc5)c4)CC3)[nH]c(=O)c2C1` [42-88], the IC50 by setting is: under setting [1], under 50 nM; under setting [2], under 3 nM.
Consider `CC(C)C(=O)N1CCN(c2ccc(-c3cccc(C4(c5nc6c(c(=O)[nH]5)CN(C(=O)[C@H](O)c5cccc(C(F)(F)F)c5)CCC6)CC4)c3)cn2)CC1` [42-89], for which the IC50 reads like this: under setting [1], under 50 nM; under setting [2], under 10 nM.
As to `O=C(Cc1ccc(COc2ccccc2)cc1)N1CCN(c2ccc(-c3cccc(C4(c5nc6c(c(=O)[nH]5)CN(C(=O)[C@H](O)c5cccc(C(F)(F)F)c5)CCC6)CC4)c3)cn2)CC1` [42-90], the IC50 is, setting by setting: under setting [1], under 50 nM; under setting [2], under 10 nM.
The matching figures for `CN(Cc1ccc(-c2cccc(C3(c4nc5c(c(=O)[nH]4)CN(C(=O)[C@H](O)c4cccc(C(F)(F)F)c4)CCC5)CC3)c2)cc1)C(=O)N1CCCCC1` [42-91]: under 50 nM and under 10 nM.
For `CN(Cc1ccc(-c2cccc(C3(c4nc5c(c(=O)[nH]4)CN(C(=O)[C@H](O)c4cccc(C(F)(F)F)c4)CCC5)CC3)c2)cc1)C(=O)NC1CCCCC1` [42-93] the same measures were under 50 nM and under 3 nM.
On to `O=C([C@H](O)c1cccc(C(F)(F)F)c1)N1CCCc2nc(C3(c4cccc(-c5ccc(CN6CCC(OCc7ccccc7)CC6)cc5)c4)CC3)[nH]c(=O)c2C1` [42-95], for which the IC50 by setting is: under setting [1], under 50 nM; under setting [2], under 10 nM.
The matching figures for `O=C([C@H](O)c1cccc(C(F)(F)F)c1)N1CCCc2nc(C3(c4cccc(-c5ccc(CN6CCc7c(Cl)cccc7C6)cc5)c4)CC3)[nH]c(=O)c2C1` [42-96]: under 50 nM and under 10 nM.
With `O=C([C@H](O)c1cccc(C(F)(F)F)c1)N1CCCc2nc(C3(c4cncc(-c5ccccc5)c4)CC3)[nH]c(=O)c2C1` [43-1], the concentration for half-maximal inhibition (IC50) by setting is: under setting [1], under 50 nM; under setting [2], under 3 nM.
Under setting [1], `O=C([C@H](O)c1cccc(C(F)(F)F)c1)N1CCCc2nc(C3(c4cncc(-c5cnsc5)c4)CC3)[nH]c(=O)c2C1` [43-2] showed an IC50 of under 50 nM.
With `O=C(C(O)c1cccc(-c2cccc(OC(F)(F)F)c2)c1)N1CCc2nc(C3(c4ccccc4)CC3)[nH]c(=O)c2C1` (centres unmarked) [44-1, 6-(2-hydroxy-2-(3′-(trifluoromethoxy)-[1,1′-biphenyl]-3-yl)acetyl)-2-(1-phenylcyclopropyl)-5,6,7,8-tetrahydropyrido[4,3-d]pyrimidin-4(3H)-one], the IC50 reads like this: under setting [1], under 50 nM; under setting [2], under 10 nM.
The matching figures for `O=C(C(O)c1cccc(-c2cccc(OC(F)(F)F)c2)c1F)N1CCc2nc(C3(c4ccccc4)CC3)[nH]c(=O)c2C1` (centres unmarked) [44-2]: under 50 nM and under 10 nM.
The matching figures for `O=C(C(O)c1cccc(-c2cc(Cl)cc(C(F)(F)F)c2)c1)N1CCc2nc(C3(c4ccccc4)CC3)[nH]c(=O)c2C1` (centres unmarked) [44-3]: under 50 nM and under 10 nM.
The matching figures for `O=C(C(O)c1cccc(-c2cccc(C(F)(F)F)n2)c1)N1CCc2nc(C3(c4ccccc4)CC3)[nH]c(=O)c2C1` (centres unmarked) [44-4]: under 50 nM and under 10 nM.
With `O=C(C(O)c1cccc(-c2ccc(Cl)c(C(F)(F)F)c2)c1)N1CCc2nc(C3(c4ccccc4)CC3)[nH]c(=O)c2C1` (centres unmarked) [44-5], the half-inhibitory concentration (IC50) by setting is: under setting [1], under 50 nM; under setting [2], under 10 nM.
